2 molecules from PMC9037210, “Novel 3-(6-methylpyridin-2-yl)coumarin-based chalcones as selective inhibitors of cancer-related carbonic anhydrases IX and XII endowed with anti-proliferative activity” (Journal of Enzyme Inhibition and Medicinal Chemistry, 2022) can be followed below.

One assay has as its system CAKI-1. As to the kind of experiment: NCI single (10 µM) dose SRB screening, CAKI-1. Type of assay: cell-based, human. To be noted: 10 µM single dose, CAKI-1, Renal cancer. On the procedure:
(§1) Following NCI protocol, sixteen MPCs were screened for their potential in vitro anticancer effects against human 59 cancer cell panels including prostate, leukaemia melanoma, colon, breast, CNS, renal, NSCLC, and ovarian cancers by National Cancer Institute (USA)[30].
(§2) The antiproliferative activities of MPC 3 and MPCs 5a–o were first evaluated in a 10 µM dose assay, with SRB assay used to determine cell survival and proliferation. […] The results of the cell growth inhibitory activities for MPCs 5g and 5l towards the different treated tumour cell lines were presented as GI% and presented in Table 3.
(§3) The anticancer test was conducted using the methods of the Drug Evaluation Branch, National Cancer Institute, Bethesda, MD, using 59 human tumour cell lines derived from nine human tissues. The GI50, TGI, and LC50 dose-response parameters were calculated for each medication.

The subject of assay [1] is RPMI-8226. The experiment in a line: NCI single (10 µM) dose SRB screening, RPMI-8226. To be noted: 10 µM single dose, RPMI-8226, Leukaemia. Type of assay: cell-based, human. On the procedure: as §1, §2, §3
For a further assay, the target named is T1, hCA IX (Homo sapiens, UniProt Q16790).
T1 construct: made in house
The experiment in a line: stopped-flow CO2 hydrase assay, hCA IX. Type of assay: biochemical. To be noted: for Selectivity index (SI) (KI off-target CA/KI target CA) Towards hCA IX: ratio of KI for hCA I and II relative to hCA IX; for Ki: stopped-flow, incubation time of 6 h, mean of three assays, read-out: KI CA IX. On the procedure:
The newly synthesised MPCs (3 and 5a–o) were assessed for their CA inhibition activity employing the stopped-flow CO2 hydrase assay[29] for constitutional hCA (I/II) isoforms and cancer-linked hCA (IX/XII) isoforms.
The CA inhibition activity for the herein reported MPC derivatives was evaluated against the hCA isoforms I, II, IX, and XII using stopped-flow CO2 hydrase test[7]^,[33–36] (see the Supplementary Material).
Carbonic anhydrase inhibition assay
The carbonic anhydrase catalyzed CO2 hydration actions for all coumarin-based […]
Photophysics stopped-flow. The enzymes are recombinant proteins prepared in our lab. Phenol red (at a concentration of 0.2 mM) has been used as indicator, working at […]
mM Na2SO4 (for maintaining constant the ionic strength), following the initial rates of the CA-catalyzed CO2 hydration reaction for a period of 10-100 s. The CO2 concentrations ranged from 1.7 to 17 mM for the determination of the kinetic parameters and inhibition constants. For each inhibitor at least six traces of the initial 5-10% of the reaction have been used for determining the initial velocity. The uncatalyzed rates were determined in the same manner and subtracted from the total observed rates. Stock solutions of inhibitor (0.1 mM) were prepared in distilled-deionized water and dilutions up to 0.01 nM were done thereafter with the assay buffer. Inhibitor and enzyme solutions were preincubated together for 6 hrs. at room temperature prior to assay, in order to allow for the formation of the E-I complex. The inhibition constants were obtained by non-linear least-squares methods using PRISM 3 and the Cheng-Prusoff equation, and represent the mean from at least three different

For the next assay, the system named is UO-31. The experiment in a line: NCI single (10 µM) dose SRB screening, UO-31. To be noted: 10 µM single dose, UO-31, Renal cancer. The class given is cell-based, human. On the procedure: as §1, §2, §3
In the next assay the test system is A549/ATCC. As to the kind of experiment: NCI single (10 µM) dose SRB screening, A549/ATCC. The class given is cell-based, human. To be noted: 10 µM single dose, NSC lung cancer. The method, then:
as §1, §2, §3

The subject of a further assay is OVCAR-5. The experiment in a line: NCI single (10 µM) dose SRB screening, OVCAR-5. Type of assay: cell-based, human. To be noted: 10 µM single dose, OVCAR-5, Ovarian cancer. On the procedure:
as §1, §2, §3

In another assay the test system is MALME-3M. The experiment in a line: NCI single (10 µM) dose SRB screening, MALME-3M. Type of assay: cell-based, human. To be noted: 10 µM single dose, Melanoma. On the procedure: as §1, §2, §3
The subject of another assay is HOP-92. The experiment in a line: NCI five dose assay, HOP-92. Type of assay: cell-based, human. To be noted: HOP-92, NSC lung cancer. On the procedure:
(§4) MPC 5l was then chosen for additional biological evaluation in a five-dose (0.01–100 µM) experiment. MPC 5l's GI50, TGI, and LC50 response parameters were obtained for each of the cancer cell lines studied. TGI represents cytostatic impact, whereas GI50 values reflect the extent of growth inhibitory effect. Furthermore, the LC50 parameter is regarded as the cytotoxicity parameter for the hybrid under investigation.
as §3

A further assay deals with U251. As to the kind of experiment: NCI five dose assay, U251. The class given is cell-based, human. On the procedure: as §4, §3
The next assay deals with MCF7. As to the kind of experiment: NCI five dose assay, MCF7. The class given is cell-based, human. To be noted: MCF7, Breast cancer. On the procedure:
as §4, §3

A further assay deals with LOX IMVI. The experiment in a line: NCI five dose assay, LOX IMVI. Type of assay: cell-based, human. To be noted: Melanoma. On the procedure:
as §4, §3

A further assay concerns SR. As to the kind of experiment: NCI five dose assay, SR. Type of assay: cell-based, human. To be noted: Leukaemia. On the procedure:
as §4, §3

In assay [2] the test system is RPMI-8226. The experiment in a line: NCI five dose assay, RPMI-8226. To be noted: RPMI-8226, Leukaemia. The class given is cell-based, human. The method, then: as §4, §3
The test system of a further assay is HCT-116. The experiment in a line: NCI five dose assay, HCT-116. To be noted: HCT-116, Colon cancer. The class given is cell-based, human. On the procedure:
as §4, §3

For assay [3], the system named is fifty-nine cancer cell lines. The experiment in a line: full NCI panel five dose assay, whole panel. The class given is cell-based. To be noted: five-dose (0.01–100 µM). On the procedure: as §4, §3
A further assay deals with K-562. The experiment in a line: NCI five dose assay, K-562. Type of assay: cell-based, human. On the procedure: as §4, §3
For another assay, the system named is SW-620. As to the kind of experiment: NCI five dose assay, SW-620. To be noted: SW-620, Colon cancer. The class given is cell-based, human. The method, then: as §4, §3
Another assay concerns SNB-19. The experiment in a line: NCI single (10 µM) dose SRB screening, SNB-19. To be noted: 10 µM single dose, SNB-19, CNS cancer. Type of assay: cell-based, human. On the procedure: as §1, §2, §3
Where [4] appears, read: Homo sapiens, read-out: IC50 (the source's name).

Turning to `Cc1nc(-c2cc3ccccc3oc2=O)ccc1C(=O)/C=C/c1ccc(N2CCOCC2)cc1` [Compound 5g, 3-(6-Methyl-5-[(2E)-3-[4-(morpholin-4-yl)phenyl]prop-2-enoyl]pyridin-2-yl)-2H-chromen-2-one], the GI % in the assay with CAKI-1 is 34%; with RPMI-8226 [1], “– (Only GI % more than 20% are displayed.)”; with UO-31, “– (Only GI % more than 20% are displayed.)”; in the assay with A549/ATCC, “– (Only GI % more than 20% are displayed.)”; in the assay with OVCAR-5 it was “– (Only GI % more than 20% are displayed.)”; in the assay with MALME-3M, 42%. Moreover, the “Selectivity index (SI) (KI off-target CA/KI target CA) Towards hCA IX” value on hCA IX is listed as greater than 8.33. On hCA IX, the inhibition constant Ki turned out to be 12 µM.
Consider `Cc1nc(-c2cc3ccccc3oc2=O)ccc1C(=O)/C=C/c1ccccn1` [Compound 5l, 3-(6-Methyl-5-[(2E)-3-(pyridin-2-yl)prop-2-enoyl]pyridin-2-yl)-2H-chromen-2-one], for which the GI % in the assay with CAKI-1 is on record as 39%; in the assay with RPMI-8226 [1], 136%; in the assay with UO-31, 41%; in the assay with A549/ATCC it was 33%; with OVCAR-5, 39%; in the assay with MALME-3M, “– (Only GI % more than 20% are displayed.)”. The molecule also came in with a GI % with SNB-19 of 28%. The TGI in the assay on HOP-92 is greater than 100 µM; with U251 (U251, CNS cancer), greater than 100 µM; in the assay on MCF7 it was greater than 100 µM; in the assay on LOX IMVI, greater than 100 µM; in the assay on SR, greater than 100 µM; in the assay on RPMI-8226 [2], greater than 100 µM. For the same molecule, the TGI is greater than 100 µM in the assay on HCT-116; greater than 100 µM in assay [3] (all cancer cell lines); greater than 100 µM in the assay with K-562 (K-562, Leukaemia); greater than 100 µM with SW-620. The GI50 in the assay on HOP-92 (Homo sapiens) was found to be 7.25 µM; in the assay with U251 (Homo sapiens, U-251, U251, CNS cancer), 8.49 µM; with MCF7 (Homo sapiens) it was 3.72 µM; with LOX IMVI (Homo sapiens) it was 3.2 µM; in the assay on SR (Homo sapiens) it was 5.3 µM; in the assay on RPMI-8226 [2] (Homo sapiens), 3.41 µM. Also, the GI50 was 6.34 µM with HCT-116 (Homo sapiens); greater than 100 µM in [3] (Homo sapiens, remaining cancer cells (other than the nine of Table 4)); 6.47 µM in the assay with K-562 (Homo sapiens, K562, K-562, Leukaemia); 6.77 µM with SW-620 (Homo sapiens). Moreover, the LC50 was greater than 100 µM in the assay with HOP-92 (setting [4]); greater than 100 µM in the assay with U251 (Homo sapiens, U-251, U251, CNS cancer, read-out: IC50 (the source's name)); greater than 100 µM in the assay with MCF7 (setting [4]); greater than 100 µM with LOX IMVI (setting [4]); greater than 100 µM with SR (setting [4]); greater than 100 µM in the assay with RPMI-8226 [2] (setting [4]). Also, the LC50 in the assay on HCT-116 (setting [4]) was greater than 100 µM; in the assay on K-562 (Homo sapiens, K562, K-562, Leukaemia, read-out: IC50 (the source's name)), greater than 100 µM; with SW-620 (setting [4]), greater than 100 µM. Moreover, the “Selectivity index (SI) (KI off-target CA/KI target CA) Towards hCA IX” value at hCA IX is reported as greater than 26.32. For the same molecule, the Ki at hCA IX was found to be 3.8 µM. For the same molecule, the CC50 in assay [3] (Homo sapiens, all cancer cells, read-out: LC50 (the source's name)) was greater than 100 µM.

The term Ki denotes the equilibrium dissociation constant of an inhibitor or competing ligand from its target. Usually TGI stands for the concentration at which net growth stops. As a reminder, the GI50 is the concentration at which growth is held to half of that of the control. Low values mean greater sensitivity of the cells, high ones lower sensitivity of the cells.
